Legend:
[1] = molecular target: T1, human Siglec-2/CD22 protein (Homo sapiens, UniProt P20273); assay: SPR binding affinity to human CD22; conditions: steady-state analysis
T1 construct: purchased Acro Biosystems SI2-H82E3
T1 sequence (P20273 20-847): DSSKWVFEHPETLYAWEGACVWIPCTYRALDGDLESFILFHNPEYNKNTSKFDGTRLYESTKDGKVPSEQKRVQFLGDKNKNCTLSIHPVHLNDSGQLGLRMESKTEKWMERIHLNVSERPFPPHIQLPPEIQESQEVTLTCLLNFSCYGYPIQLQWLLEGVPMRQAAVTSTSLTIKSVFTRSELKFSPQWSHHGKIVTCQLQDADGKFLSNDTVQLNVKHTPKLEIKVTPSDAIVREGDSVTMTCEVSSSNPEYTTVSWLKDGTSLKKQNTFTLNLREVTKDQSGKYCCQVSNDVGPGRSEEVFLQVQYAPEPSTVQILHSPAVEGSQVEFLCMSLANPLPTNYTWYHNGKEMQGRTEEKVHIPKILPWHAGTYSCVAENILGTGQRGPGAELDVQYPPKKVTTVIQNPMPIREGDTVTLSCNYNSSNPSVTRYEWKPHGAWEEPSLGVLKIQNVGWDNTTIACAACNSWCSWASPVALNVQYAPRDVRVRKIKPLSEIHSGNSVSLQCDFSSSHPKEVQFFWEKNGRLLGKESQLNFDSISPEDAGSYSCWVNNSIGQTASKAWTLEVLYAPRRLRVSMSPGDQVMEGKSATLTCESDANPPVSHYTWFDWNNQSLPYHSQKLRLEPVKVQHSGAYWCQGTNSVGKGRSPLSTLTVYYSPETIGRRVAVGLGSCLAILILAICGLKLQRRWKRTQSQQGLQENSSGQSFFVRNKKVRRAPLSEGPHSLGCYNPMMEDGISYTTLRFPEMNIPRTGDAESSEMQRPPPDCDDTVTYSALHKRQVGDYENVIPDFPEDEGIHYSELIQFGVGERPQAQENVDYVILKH
How it was run: (§1)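 Native sialic acid residues are removed from the receptor enzymatically (4 hours at 37° C.) prior to streptavidin capture of the biotinylated protein. Ligand compounds then flow over in HEPES-buffered saline, pH 7.5, containing 0.05% Tween-20 and 1% DMSO, and binding is evaluated at steady state.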

[2] = molecular target: T2, mouse Siglec-2-Fc-Avi (CD22) (Mus musculus, UniProt P35329); assay: SPR binding affinity to mouse CD22; conditions: steady-state analysis
T2 construct: made in house
T2 sequence (P35329 22-708 limits assumed): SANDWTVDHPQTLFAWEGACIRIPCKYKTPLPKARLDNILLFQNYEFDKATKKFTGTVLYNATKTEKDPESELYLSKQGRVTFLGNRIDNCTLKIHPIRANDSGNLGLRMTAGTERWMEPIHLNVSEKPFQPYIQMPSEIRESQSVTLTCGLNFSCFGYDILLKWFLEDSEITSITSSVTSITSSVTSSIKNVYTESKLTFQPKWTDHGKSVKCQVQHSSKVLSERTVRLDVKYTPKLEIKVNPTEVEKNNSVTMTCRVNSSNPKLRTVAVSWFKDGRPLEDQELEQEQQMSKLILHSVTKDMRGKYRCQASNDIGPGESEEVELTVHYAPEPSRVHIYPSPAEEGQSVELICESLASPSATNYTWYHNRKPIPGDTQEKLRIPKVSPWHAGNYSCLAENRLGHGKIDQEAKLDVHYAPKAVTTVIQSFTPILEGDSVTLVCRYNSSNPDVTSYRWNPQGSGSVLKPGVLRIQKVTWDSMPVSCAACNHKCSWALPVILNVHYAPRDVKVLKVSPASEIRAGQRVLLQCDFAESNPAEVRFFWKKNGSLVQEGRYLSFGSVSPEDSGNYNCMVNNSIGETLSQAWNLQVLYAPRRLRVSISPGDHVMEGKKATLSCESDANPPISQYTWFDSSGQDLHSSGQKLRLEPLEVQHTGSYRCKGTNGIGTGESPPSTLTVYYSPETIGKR
How it was run: as §1

[3] = molecular target: cynomolgus Siglec-2/CD22 (Macaca fascicularis, UniProt A0A2K5WCZ6); assay: biochemical; type: binding; conditions: SPR, steady-state analysis; read-out: Affinity cyno CD22
cynomolgus Siglec-2/CD22, sequence (A0A2K5WCZ6 entry or part of it): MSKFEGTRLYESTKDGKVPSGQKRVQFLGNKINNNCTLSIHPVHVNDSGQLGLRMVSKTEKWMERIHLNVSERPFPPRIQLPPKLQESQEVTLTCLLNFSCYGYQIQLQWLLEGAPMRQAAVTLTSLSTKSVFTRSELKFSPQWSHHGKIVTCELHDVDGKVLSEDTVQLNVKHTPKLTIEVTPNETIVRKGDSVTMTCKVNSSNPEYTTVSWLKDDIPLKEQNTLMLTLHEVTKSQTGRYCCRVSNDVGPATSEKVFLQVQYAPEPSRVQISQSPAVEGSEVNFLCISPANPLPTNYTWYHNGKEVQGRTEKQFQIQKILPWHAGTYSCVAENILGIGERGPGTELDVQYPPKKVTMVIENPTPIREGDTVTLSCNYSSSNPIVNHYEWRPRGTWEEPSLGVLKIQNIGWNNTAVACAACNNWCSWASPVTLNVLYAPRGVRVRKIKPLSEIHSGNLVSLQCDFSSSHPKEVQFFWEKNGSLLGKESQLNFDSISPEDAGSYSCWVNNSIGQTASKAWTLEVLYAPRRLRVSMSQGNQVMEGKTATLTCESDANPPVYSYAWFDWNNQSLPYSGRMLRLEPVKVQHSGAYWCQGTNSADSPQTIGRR
How it was run: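 Compound binding measured by steady-state SPR analysis, 120 s dissociation, in HEPES-NaCl-Tween buffer pH 7.5 containing 1% DMSO, DMSO solvent-corrected. Surface: cyno CD22, sialic acids first stripped by SialoExo for 4 h at 37° C., then amine-coupled onto CM5.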

## C#CCCOc1ccc(CO[C@]2(C(=O)O)C[C@H](O)[C@@H](NC(=O)CO)[C@H]([C@H](O)[C@H](O)CNC(=O)Cc3ccc(O)c(Cl)c3)O2)cc1 [Compound 136, (2R,4S,5R,6R)-2-((4-(but-3-yn-1-yloxy)benzyl)oxy)-6-((1R,2R)-3-(2-(3-chloro-4-hydroxyphenyl)acetamido)-1,2-dihydroxypropyl)-4-hydroxy-5-(2-hydroxyacetamido)tetrahydro-2H-pyran-2-carboxylic acid]
[1]
  Kd: < 1000 nM
[2]
  Kd: 1000 to 10000 nM
[3]
  Kd: < 1000 nM

## C#CCCOc1ccc(CO[C@]2(C(=O)O)C[C@H](O)[C@@H](NC(=O)CO)[C@H]([C@H](O)[C@H](O)CNC(=O)Cc3ccc(N4CCC(NC(C)=O)CC4)cc3)O2)cc1 [Compound 137, (2R,4S,5R,6R)-6-((1R,2R)-3-(2-(4-(4-acetamidopiperidin-1-yl)phenyl)acetamido)-1,2-dihydroxypropyl)-2-((4-(but-3-yn-1-yloxy)benzyl)oxy)-4-hydroxy-5-(2-hydroxyacetamido)tetrahydro-2H-pyran-2-carboxylic acid]
[1]
  Kd: > 10000 nM
[2]
  Kd: > 10000 nM
[3]
  Kd: 1000 to 10000 nM

## C#CCCOc1ccc(CO[C@]2(C(=O)O)C[C@H](O)[C@@H](NC(=O)CO)[C@H]([C@H](O)[C@H](O)CNC(=O)Cc3ccccc3N3CCOCC3)O2)cc1 [Compound 138, (2R,4S,5R,6R)-2-((4-(but-3-yn-1-yloxy)benzyl)oxy)-6-((1R,2R)-1,2-dihydroxy-3-(2-(2-morpholinophenyl)acetamido)propyl)-4-hydroxy-5-(2-hydroxyacetamido)tetrahydro-2H-pyran-2-carboxylic acid]
[1]
  Kd: 1000 to 10000 nM
[2]
  Kd: 1000 to 10000 nM
[3]
  Kd: < 1000 nM

## C#CCCOc1ccc(CO[C@]2(C(=O)O)C[C@H](O)[C@@H](NC(=O)CO)[C@H]([C@H](O)[C@H](O)CNC(=O)Cc3cccc(N4CCOCC4)c3)O2)cc1 [Compound 140, (2R,4S,5R,6R)-2-((4-(but-3-yn-1-yloxy)benzyl)oxy)-6-((1R,2R)-1,2-dihydroxy-3-(2-(3-morpholinophenyl)acetamido)propyl)-4-hydroxy-5-(2-hydroxyacetamido)tetrahydro-2H-pyran-2-carboxylic acid]
[1]
  Kd: 1000 to 10000 nM
[2]
  Kd: 1000 to 10000 nM
[3]
  Kd: 1000 to 10000 nM

## C#CCCCCCCS[C@]1(C(=O)O)C[C@H](O)[C@@H](NC(=O)CO)[C@H]([C@H](O)[C@H](O)CNC(=O)Cc2cccc(O)c2)O1 [Compound 141, (2S,4S,5R,6R)-6-((1R,2R)-1,2-dihydroxy-3-(2-(3-hydroxyphenyl)acetamido)propyl)-4-hydroxy-5-(2-hydroxyacetamido)-2-(oct-7-yn-1-ylthio)tetrahydro-2H-pyran-2-carboxylic acid]
[1]
  Kd: < 1000 nM
[2]
  Kd: < 1000 nM
[3]
  Kd: 1000 to 10000 nM

## C#Cc1ccc(CO[C@]2(C(=O)O)C[C@H](O)[C@@H](NC(=O)CO)[C@H]([C@H](O)[C@H](O)CNC(=O)Cc3cccc(O)c3)O2)cc1 [Compound 142, (2R,4S,5R,6R)-6-((1R,2R)-1,2-dihydroxy-3-(2-(3-hydroxyphenyl)acetamido)propyl)-2-((4-ethynylbenzyl)oxy)-4-hydroxy-5-(2-hydroxyacetamido)tetrahydro-2H-pyran-2-carboxylic acid]
[1]
  Kd: < 1000 nM
[2]
  Kd: < 1000 nM
[3]
  Kd: < 1000 nM

## O=C(O)CCCCCCO[C@]1(C(=O)O)C[C@H](O)[C@@H](NC(=O)CO)[C@H]([C@H](O)[C@H](O)CNC(=O)Cc2cccc(O)c2)O1 [Compound 143, (2R,4S,5R,6R)-2-((6-carboxyhexyl)oxy)-6-((1R,2R)-1,2-dihydroxy-3-(2-(3-hydroxyphenyl)acetamido)propyl)-4-hydroxy-5-(2-hydroxyacetamido)tetrahydro-2H-pyran-2-carboxylic acid]
[1]
  Kd: < 1000 nM
[2]
  Kd: 1000 to 10000 nM
[3]
  Kd: < 1000 nM

## C#CCOCCCCCCO[C@]1(C(=O)O)C[C@H](O)[C@@H](NC(=O)CO)[C@H]([C@H](O)[C@H](O)CNC(=O)Cc2cccc(O)c2)O1 [Compound 144, (2R,4S,5R,6R)-6-((1R,2R)-1,2-dihydroxy-3-(2-(3-hydroxyphenyl)acetamido)propyl)-4-hydroxy-5-(2-hydroxyacetamido)-2-((6-(prop-2-yn-1-yloxy)hexyl)oxy)tetrahydro-2H-pyran-2-carboxylic acid]
[1]
  Kd: 1000 to 10000 nM
[2]
  Kd: 1000 to 10000 nM
[3]
  Kd: < 1000 nM

## C#CCOc1ccc(CO[C@]2(C(=O)O)C[C@H](O)[C@@H](NC(=O)CO)[C@H]([C@H](O)[C@H](O)CNC(=O)Cc3ccccc3O)O2)cc1 [Compound 145, (2R,4S,5R,6R)-6-((1R,2R)-1,2-dihydroxy-3-(2-(2-hydroxyphenyl)acetamido)propyl)-4-hydroxy-5-(2-hydroxyacetamido)-2-((4-(prop-2-yn-1-yloxy)benzyl)oxy)tetrahydro-2H-pyran-2-carboxylic acid]
[1]
  Kd: 1000 to 10000 nM
[2]
  Kd: 1000 to 10000 nM
[3]
  Kd: 1000 to 10000 nM

## C#CCOc1ccc(CO[C@]2(C(=O)O)C[C@H](O)[C@@H](NC(=O)CO)[C@H]([C@H](O)[C@H](O)CNC(=O)Cc3ccc(O)cc3)O2)cc1 [Compound 146, (2R,4S,5R,6R)-6-((1R,2R)-1,2-dihydroxy-3-(2-(4-hydroxyphenyl)acetamido)propyl)-4-hydroxy-5-(2-hydroxyacetamido)-2-((4-(prop-2-yn-1-yloxy)benzyl)oxy)tetrahydro-2H-pyran-2-carboxylic acid]
[1]
  Kd: 1000 to 10000 nM
[2]
  Kd: 1000 to 10000 nM
[3]
  Kd: < 1000 nM

## C#CCCCCCCc1cn([C@]2(C(=O)O)C[C@H](O)[C@@H](NC(=O)CO)[C@H]([C@H](O)[C@H](O)CNC(=O)Cc3cccc(O)c3)O2)nn1 [Compound 147, (2R,4S,5R,6R)-6-((1R,2R)-1,2-dihydroxy-3-(2-(3-hydroxyphenyl)acetamido)propyl)-4-hydroxy-5-(2-hydroxyacetamido)-2-(4-(oct-7-yn-1-yl)-1H-1,2,3-triazol-1-yl)tetrahydro-2H-pyran-2-carboxylic acid]
[1]
  Kd: 1000 to 10000 nM
[2]
  Kd: 1000 to 10000 nM
[3]
  Kd: 1000 to 10000 nM

## C#CCCOc1ccc(CS[C@]2(C(=O)O)C[C@H](O)[C@@H](NC(=O)CO)[C@H]([C@H](O)[C@H](O)CNC(=O)Cc3ccc(O)cc3)O2)cc1 [Compound 148, (2S,4S,5R,6R)-2-((4-(but-3-yn-1-yloxy)benzyl)thio)-6-((1R,2R)-1,2-dihydroxy-3-(2-(4-hydroxyphenyl)acetamido)propyl)-4-hydroxy-5-(2-hydroxyacetamido)tetrahydro-2H-pyran-2-carboxylic acid]
[1]
  Kd: < 1000 nM
[2]
  Kd: < 1000 nM
[3]
  Kd: 1000 to 10000 nM

## C#CCCOc1ccc(CS[C@]2(C(=O)O)C[C@H](O)[C@@H](NC(=O)CO)[C@H]([C@H](O)[C@H](O)CNC(=O)Cc3cccc(O)c3)O2)cc1 [Compound 149, (2S,4S,5R,6R)-2-((4-(but-3-yn-1-yloxy)benzyl)thio)-6-((1R,2R)-1,2-dihydroxy-3-(2-(3-hydroxyphenyl)acetamido)propyl)-4-hydroxy-5-(2-hydroxyacetamido)tetrahydro-2H-pyran-2-carboxylic acid]
[1]
  Kd: < 1000 nM
[2]
  Kd: 1000 to 10000 nM
[3]
  Kd: 1000 to 10000 nM

Reference: patent US20250064941A1, “SIGLEC LIGANDS, CONJUGATES, AND METHODS OF USE THEREOF” (Osprey Biopharmaceuticals, Inc., priority 2023, published 2025)
